In ChEMBL document CHEMBL1201862, “PubChem BioAssay data set” (2004):
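Grown in 96-well plates, cells were treated for 48 hours with each compound at five concentrations. Insufficient inhibition: endpoint recorded as highest concentration tested. GI50: concentration for 50% inhibition of growth.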 Activity calls are given as the source filed them. No stated cut-off is given here; in the data, active = GI50 up to about 1.1 µM and inactive = higher.

Key:
Assay in all cases: NCI anticancer screen, dose series, 48 h
HOP-92 = test system: HOP-92
SK-OV-3 = test system: SK-OV-3
MCF7 = test system: MCF7
UACC-62 = test system: UACC-62
SF-268 = test system: SF-268
MOLT-4 = test system: MOLT-4
RXF 393 = test system: RXF 393
NCI-H226 = test system: NCI-H226
A498 = test system: A498
HL-60 = test system: HL-60
OVCAR-5 = test system: OVCAR-5
SN12C = test system: SN12C
UACC-257 = test system: UACC-257
SF-539 = test system: SF-539
CAKI-1 = test system: CAKI-1
KM12 = test system: KM12
IGROV-1 = test system: IGROV-1
PC-3 = test system: PC-3
MDA-MB-231 = test system: MDA-MB-231
MDA-MB-435 = test system: MDA-MB-435

Row | Structure (SMILES) | GI50 (HOP-92) | GI50 (SK-OV-3) | GI50 (MCF7) | GI50 (UACC-62) | GI50 (SF-268) | GI50 (MOLT-4) | GI50 (RXF 393) | GI50 (NCI-H226) | GI50 (A498) | GI50 (HL-60) | GI50 (OVCAR-5) | GI50 (SN12C) | GI50 (UACC-257) | GI50 (SF-539) | GI50 (CAKI-1) | GI50 (KM12) | GI50 (IGROV-1) | GI50 (PC-3) | GI50 (MDA-MB-231) | GI50 (MDA-MB-435)
1 | C=CC1(C)CC(=O)C2(O)C(C)(O1)C(OC(C)=O)C(O)C1C(C)(C)CCC(O)C12C (configuration not stated) | > 150 µM (inactive) | 29.7 µM (inactive) | 81.7 µM (inactive) | 69.7 µM (inactive) | > 128 µM (inactive) | 28.6 µM (inactive) | 7.62 µM (inactive) | 3.41 µM (inactive) | > 150 µM (inactive) | 42.1 µM (inactive) | 4.84 µM (inactive) | 30.6 µM (inactive) | > 150 µM (inactive) | 33.1 µM (inactive) | 1.37 µM (inactive) | 0.863 µM (active) | 47.3 µM (inactive) |  |  | 
2 | NCCCc1nonc1C(=O)O | > 100 µM (inactive) | > 100 µM (inactive) | > 100 µM (inactive) | > 100 µM (inactive) | > 100 µM (inactive) | > 100 µM (inactive) | > 100 µM (inactive) | > 100 µM (inactive) |  | > 100 µM (inactive) | > 100 µM (inactive) | > 100 µM (inactive) | > 100 µM (inactive) | > 100 µM (inactive) | > 100 µM (inactive) | > 100 µM (inactive) | > 100 µM (inactive) | > 100 µM (inactive) | > 100 µM (inactive) | > 100 µM (inactive)
3 | CC(=O)N1C(C(=O)NNc2ccccc2)CSC1c1ccccc1 (configuration not stated) | > 100 µM (inactive) | > 100 µM (inactive) | > 100 µM (inactive) | 1.39 µM (inactive) | > 100 µM (inactive) | 4 µM (inactive) |  | > 100 µM (inactive) | > 100 µM (inactive) |  | > 100 µM (inactive) | > 100 µM (inactive) | > 100 µM (inactive) | 62.8 µM (inactive) | > 100 µM (inactive) | 71.3 µM (inactive) | 36.6 µM (inactive) | 5.3 µM (inactive) | > 100 µM (inactive) | 16.7 µM (inactive)
4 | CCC(=O)C(C(C)/C=C/CCSc1ccccc1)C(O)CCCCCC(=O)OC (configuration not stated) | 13.7 µM (inactive) | > 100 µM (inactive) | 66.4 µM (inactive) | 71.9 µM (inactive) | > 100 µM (inactive) | 27.1 µM (inactive) | > 100 µM (inactive) | > 100 µM (inactive) |  |  | > 100 µM (inactive) | > 100 µM (inactive) | 58.9 µM (inactive) | > 100 µM (inactive) | 67.5 µM (inactive) | 40.6 µM (inactive) | > 100 µM (inactive) | 84.1 µM (inactive) | > 100 µM (inactive) | > 100 µM (inactive)
5 | COC(=O)CCCC(=O)NC1=C(Nc2ccc(OC)cc2)C(=O)c2ccccc2C1=O | 71 µM (inactive) | 34.1 µM (inactive) | 17.1 µM (inactive) | 12.8 µM (inactive) | 45.6 µM (inactive) | 24.8 µM (inactive) |  |  | 20.7 µM (inactive) | 21.7 µM (inactive) | 18.8 µM (inactive) | 27.7 µM (inactive) | 18.1 µM (inactive) | 19.3 µM (inactive) | 43.2 µM (inactive) | 28.8 µM (inactive) | 18 µM (inactive) |  | 30.1 µM (inactive) | 18.2 µM (inactive)
6 | Cc1cn(C2CC(ON3C(=O)c4ccccc4C3=O)C(CO)O2)c(=O)[nH]c1=O (configuration not stated) | 0.855 µM (active) | > 10 µM (inactive) | > 10 µM (inactive) | > 10 µM (inactive) | > 10 µM (inactive) | > 10 µM (inactive) | > 10 µM (inactive) | > 10 µM (inactive) |  | > 10 µM (inactive) | > 10 µM (inactive) | > 10 µM (inactive) | > 10 µM (inactive) | > 10 µM (inactive) |  | > 10 µM (inactive) | > 10 µM (inactive) | > 10 µM (inactive) |  | > 10 µM (inactive)
7 | Cc1ccc(C(=O)N/N=C(\N=N\c2ccccc2)c2ccc(N(C)C)cc2)cc1 | > 100 µM (inactive) | > 100 µM (inactive) | 48.8 µM (inactive) | 67.8 µM (inactive) | 50.7 µM (inactive) | > 100 µM (inactive) |  | > 100 µM (inactive) |  | > 100 µM (inactive) | > 100 µM (inactive) | > 100 µM (inactive) | > 100 µM (inactive) | > 100 µM (inactive) | 44.5 µM (inactive) | 71.1 µM (inactive) | > 100 µM (inactive) | > 100 µM (inactive) | > 100 µM (inactive) | 24 µM (inactive)
8 | O=c1c2cc(S(=O)(=O)Nc3ccccc3Cl)ccc2ncn1NS(=O)(=O)c1ccc(Br)cc1 | > 37.5 µM (inactive) | > 37.5 µM (inactive) | > 37.5 µM (inactive) | > 37.5 µM (inactive) | > 37.5 µM (inactive) | > 37.5 µM (inactive) |  | > 37.5 µM (inactive) |  | > 37.5 µM (inactive) | > 37.5 µM (inactive) | > 37.5 µM (inactive) | > 37.5 µM (inactive) | > 37.5 µM (inactive) | > 37.5 µM (inactive) | > 37.5 µM (inactive) | > 37.5 µM (inactive) | > 37.5 µM (inactive) | > 37.5 µM (inactive) | > 37.5 µM (inactive)
